{"source": "patent US20210317134A1", "about": "“UBIQUITIN-SPECIFIC-PROCESSING PROTEASE 7 (USP7) MODULATORS AND USES THEREOF” (RAPT THERAPEUTICS, INC., priority 2019, published 2021)"}
{"target": "USP7 (Homo sapiens, UniProt Q93009)", "sequence (Q93009 whole entry)": "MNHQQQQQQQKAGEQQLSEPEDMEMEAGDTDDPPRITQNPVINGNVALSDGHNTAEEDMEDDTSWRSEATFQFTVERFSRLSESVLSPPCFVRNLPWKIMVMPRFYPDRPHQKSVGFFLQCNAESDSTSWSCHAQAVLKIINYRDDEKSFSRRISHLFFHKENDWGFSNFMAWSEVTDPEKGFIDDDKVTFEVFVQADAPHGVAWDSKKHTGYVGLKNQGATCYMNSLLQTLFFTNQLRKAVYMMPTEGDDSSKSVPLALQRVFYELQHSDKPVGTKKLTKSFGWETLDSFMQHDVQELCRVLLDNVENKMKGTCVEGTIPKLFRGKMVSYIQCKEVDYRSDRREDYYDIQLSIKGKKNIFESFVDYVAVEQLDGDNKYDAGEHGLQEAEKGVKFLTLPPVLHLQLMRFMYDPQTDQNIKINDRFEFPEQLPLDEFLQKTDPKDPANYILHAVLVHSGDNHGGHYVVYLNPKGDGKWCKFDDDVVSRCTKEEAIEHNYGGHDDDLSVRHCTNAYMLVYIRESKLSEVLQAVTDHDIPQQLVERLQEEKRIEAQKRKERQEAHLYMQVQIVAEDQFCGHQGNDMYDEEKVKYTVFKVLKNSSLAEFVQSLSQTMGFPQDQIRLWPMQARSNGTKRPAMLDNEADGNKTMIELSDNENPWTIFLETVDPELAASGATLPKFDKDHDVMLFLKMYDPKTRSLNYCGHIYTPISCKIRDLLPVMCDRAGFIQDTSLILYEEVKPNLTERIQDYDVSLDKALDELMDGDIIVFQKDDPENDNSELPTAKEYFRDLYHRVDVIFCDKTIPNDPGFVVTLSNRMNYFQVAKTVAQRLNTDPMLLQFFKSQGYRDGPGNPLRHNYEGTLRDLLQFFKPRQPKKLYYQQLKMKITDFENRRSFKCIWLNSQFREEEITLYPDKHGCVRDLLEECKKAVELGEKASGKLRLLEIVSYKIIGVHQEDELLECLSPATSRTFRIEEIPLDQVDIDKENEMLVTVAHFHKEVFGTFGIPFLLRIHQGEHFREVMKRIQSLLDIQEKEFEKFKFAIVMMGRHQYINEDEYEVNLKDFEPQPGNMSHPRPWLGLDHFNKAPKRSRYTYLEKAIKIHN", "experiment": "USP7 inhibitory potency (Table 1)", "assay_type": "biochemical", "units": {"IC50": "nM"}}
{"smiles": "O=C([C@H]1Cc2cc(Cl)cc(-c3ccnc4cc(CO)sc34)c2O1)N1CCNCC1", "note": "[(R)-(5-chloro-7-(2-(hydroxymethyl)thieno[3,2-b]pyridin-7-yl)-2,3-dihydrobenzofuran-2-yl)(piperazin-1-yl)methanone]", "IC50": "< 1000"}
{"smiles": "O=C([C@H]1Cc2cc(Cl)cc(-c3ccnc4c3CCC4)c2O1)N1CCNCC1", "note": "[(R)-(5-chloro-7-(6,7-dihydro-5H-cyclopenta[b]pyridin-4-yl)-2,3-dihydrobenzofuran-2-yl)(piperazin-1-yl)methanone]", "IC50": "< 1000"}
{"smiles": "Cc1cc2ncnc(-c3cc(Cl)cc4c3O[C@@H](C(=O)N3CCNCC3)C4)c2s1", "note": "[(R)-(5-chloro-7-(6-methylthieno[3,2-d]pyrimidin-4-yl)-2,3-dihydrobenzofuran-2-yl)(piperazin-1-yl)methanone]", "IC50": "< 1000"}
{"smiles": "O=C([C@H]1Cc2cc(Cl)cc(-c3ccnc4occc34)c2O1)N1CCNCC1", "note": "[(R)-(5-chloro-7-(furo[2,3-b]pyridin-4-yl)-2,3-dihydrobenzofuran-2-yl)(piperazin-1-yl)methanone]", "IC50": "1000 to 10000"}
{"smiles": "O=C([C@H]1Cc2cc(Cl)cc(-c3ccnc4ccoc34)c2O1)N1CCNCC1", "note": "[(R)-(5-chloro-7-(furo[3,2-b]pyridin-7-yl)-2,3-dihydrobenzofuran-2-yl)(piperazin-1-yl)methanone]", "IC50": "< 1000"}
{"smiles": "O=C([C@H]1Cc2cc(Cl)cc(-c3ncnc4ccoc34)c2O1)N1CCNCC1", "note": "[(R)-(5-chloro-7-(furo[3,2-d]pyrimidin-4-yl)-2,3-dihydrobenzofuran-2-yl)(piperazin-1-yl)methanone]", "IC50": "10000 to 30000"}
{"smiles": "O=C([C@H]1Cc2cc(Cl)cc(-c3ccnc4sccc34)c2O1)N1CCNCC1", "note": "[(R)-(5-chloro-7-(thieno[2,3-b]pyridin-4-yl)-2,3-dihydrobenzofuran-2-yl)(piperazin-1-yl)methanone]", "IC50": "1000 to 10000"}
{"smiles": "CN(C)C1CN(C(=O)[C@H]2Cc3cc(Cl)cc(-c4ccnc5ccsc45)c3O2)C1", "note": "[(R)-(5-chloro-7-(thieno[3,2-b]pyridin-7-yl)-2,3-dihydrobenzofuran-2-yl)(3-(dimethylamino)azetidin-1-yl)methanone]", "IC50": "< 1000"}
{"smiles": "CN(C)C1CCN(C(=O)[C@H]2Cc3cc(Cl)cc(-c4ccnc5ccsc45)c3O2)CC1", "note": "[(R)-(5-chloro-7-(thieno[3,2-b]pyridin-7-yl)-2,3-dihydrobenzofuran-2-yl)(4-(dimethylamino)piperidin-1-yl)methanone]", "IC50": "< 1000"}
{"smiles": "CNC1CCN(C(=O)[C@H]2Cc3cc(Cl)cc(-c4ccnc5ccsc45)c3O2)CC1", "note": "[(R)-(5-chloro-7-(thieno[3,2-b]pyridin-7-yl)-2,3-dihydrobenzofuran-2-yl)(4-(methylamino)piperidin-1-yl)methanone]", "IC50": "< 1000"}
{"smiles": "O=C([C@H]1Cc2cc(Cl)cc(-c3ccnc4ccsc34)c2O1)N1CCC(N2CCCC2)CC1", "note": "[(R)-(5-chloro-7-(thieno[3,2-b]pyridin-7-yl)-2,3-dihydrobenzofuran-2-yl)(4-(pyrrolidin-1-yl)piperidin-1-yl)methanone]", "IC50": "< 1000"}
{"smiles": "O=C([C@H]1Cc2cc(Cl)cc(-c3ccnc4ccsc34)c2O1)N1CCNCC1", "note": "[(R)-(5-chloro-7-(thieno[3,2-b]pyridin-7-yl)-2,3-dihydrobenzofuran-2-yl)(piperazin-1-yl)methanone]", "IC50": "< 1000"}
{"smiles": "O=C([C@H]1CCc2cc(Cl)cc(-c3ccnc4cc(CO)sc34)c2O1)N1CCNCC1", "note": "[(R)-(6-chloro-8-(2-(hydroxymethyl)thieno[3,2-b]pyridin-7-yl)chroman-2-yl)(piperazin-1-yl)methanone]", "IC50": "< 1000"}
{"smiles": "NCc1cc2nccc(-c3cc(Cl)cc4c3O[C@@H](C(=O)N3CCNCC3)C4)c2s1", "note": "[(R)-(7-(2-(aminomethyl)thieno[3,2-b]pyridin-7-yl)-5-chloro-2,3-dihydrobenzofuran-2-yl)(piperazin-1-yl)methanone]", "IC50": "< 1000"}
{"smiles": "Cn1nc2c(c1[C@H]1Cc3cc(Cl)cc(-c4ccnc5cc(CO)sc45)c3O1)CNCC2", "note": "[(R)-(7-(5-chloro-2-(2-methyl-4,5,6,7-tetrahydro-2H-pyrazolo[4,3-c]pyridin-3-yl)-2,3-dihydrobenzofuran-7-yl)thieno[3,2-b]pyridin-2-yl)methanol]", "IC50": "< 1000"}
{"smiles": "CCN1CCc2noc([C@H]3Cc4cc(Cl)cc(-c5ccnc6cc(CO)sc56)c4O3)c2C1", "note": "[(R)-(7-(5-chloro-2-(5-ethyl-4,5,6,7-tetrahydroisoxazolo[4,3-c]pyridin-3-yl)-2,3-dihydrobenzofuran-7-yl)thieno[3,2-b]pyridin-2-yl)methanol]", "IC50": "< 1000"}
{"smiles": "CN1CCc2noc([C@H]3Cc4cc(Cl)cc(-c5ccnc6cc(CO)sc56)c4O3)c2C1", "note": "[(R)-(7-(5-chloro-2-(5-methyl-4,5,6,7-tetrahydroisoxazolo[4,3-c]pyridin-3-yl)-2,3-dihydrobenzofuran-7-yl)thieno[3,2-b]pyridin-2-yl)methanol]", "IC50": "< 1000"}
{"smiles": "OCc1cc2nccc(-c3cc(Cl)cc4c3O[C@@H](c3onc5c3CNCC5)CC4)c2s1", "note": "[(R)-(7-(6-chloro-2-(4,5,6,7-tetrahydroisoxazolo[4,3-c]pyridin-3-yl)chroman-8-yl)thieno[3,2-b]pyridin-2-yl)methanol]", "IC50": "< 1000"}
{"smiles": "CC(=O)NCCc1cc2nccc(-c3cc(Cl)cc4c3O[C@@H](C(=O)N3CCNCC3)C4)c2s1", "note": "[(R)-N-(2-(7-(5-chloro-2-(piperazine-1-carbonyl)-2,3-dihydrobenzofuran-7-yl)thieno[3,2-b]pyridin-2-yl)ethyl)acetamide]", "IC50": "< 1000"}
{"smiles": "O=C([C@H]1Cc2cc(Cl)cc(-c3ccnc4cc(CCNS(=O)(=O)c5ccccc5)sc34)c2O1)N1CCNCC1", "note": "[(R)-N-(2-(7-(5-chloro-2-(piperazine-1-carbonyl)-2,3-dihydrobenzofuran-7-yl)thieno[3,2-b]pyridin-2-yl)ethyl)benzenesulfonamide]", "IC50": "< 1000"}
{"smiles": "CN(C)S(=O)(=O)NCCc1cc2nccc(-c3cc(Cl)cc4c3O[C@@H](C(=O)N3CCNCC3)C4)c2s1", "note": "[(R)-N-(2-(7-(5-chloro-2-(piperazine-1-carbonyl)-2,3-dihydrobenzofuran-7-yl)thieno[3,2-b]pyridin-2-yl)ethyl)dimethylamimosulfonylurea]", "IC50": "< 1000"}
{"smiles": "CS(=O)(=O)NCCc1cc2nccc(-c3cc(Cl)cc4c3O[C@@H](C(=O)N3CCNCC3)C4)c2s1", "note": "[(R)-N-(2-(7-(5-chloro-2-(piperazine-1-carbonyl)-2,3-dihydrobenzofuran-7-yl)thieno[3,2-b]pyridin-2-yl)ethyl)methanesulfonamide]", "IC50": "< 1000"}
{"smiles": "CC(C)S(=O)(=O)NCCc1cc2nccc(-c3cc(Cl)cc4c3O[C@@H](C(=O)N3CCNCC3)C4)c2s1", "note": "[(R)-N-(2-(7-(5-chloro-2-(piperazine-1-carbonyl)-2,3-dihydrobenzofuran-7-yl)thieno[3,2-b]pyridin-2-yl)ethyl)propane-2-sulfonamide]", "IC50": "< 1000"}
{"smiles": "CC(=O)NC(C)(C)c1cc2nccc(-c3cc(Cl)cc4c3O[C@@H](C(=O)N3CCNCC3)C4)c2s1", "note": "[(R)-N-(2-(7-(5-chloro-2-(piperazine-1-carbonyl)-2,3-dihydrobenzofuran-7-yl)thieno[3,2-b]pyridin-2-yl)propan-2-yl)acetamide]", "IC50": "1000 to 10000"}
{"smiles": "CC(=O)NCc1ccc2c(-c3cc(Cl)cc4c3O[C@@H](c3onc5c3CNCC5)C4)ccnc2c1", "note": "[(R)-N-((4-(5-chloro-2-(4,5,6,7-tetrahydroisoxazolo[4,3-c]pyridin-3-yl)-2,3-dihydrobenzofuran-7-yl)quinolin-7-yl)methyl)acetamide]", "IC50": "1000 to 10000"}
{"smiles": "CS(=O)(=O)NCc1ccc2c(-c3cc(Cl)cc4c3O[C@@H](c3onc5c3CNCC5)C4)ccnc2c1", "note": "[(R)-N-((4-(5-chloro-2-(4,5,6,7-tetrahydroisoxazolo[4,3-c]pyridin-3-yl)-2,3-dihydrobenzofuran-7-yl)quinolin-7-yl)methyl)methanesulfonamide]", "IC50": "1000 to 10000"}
{"smiles": "CC(=O)NCc1cc2ncnc(-c3cc(Cl)cc4c3O[C@@H](c3onc5c3CNCC5)C4)c2s1", "note": "[(R)-N-((4-(5-chloro-2-(4,5,6,7-tetrahydroisoxazolo[4,3-c]pyridin-3-yl)-2,3-dihydrobenzofuran-7-yl)thieno[3,2-d]pyrimidin-6-yl)methyl)acetamide]", "IC50": "< 1000"}
{"smiles": "CC(=O)NCc1cc2nccc(-c3cc(Cl)cc4c3O[C@@H](c3c5c(nn3C)CCNC5)C4)c2s1", "note": "[(R)-N-((7-(5-chloro-2-(2-methyl-4,5,6,7-tetrahydro-2H-pyrazolo[4,3-c]pyridin-3-yl)-2,3-dihydrobenzofuran-7-yl)thieno[3,2-b]pyridin-2-yl)methyl)acetamide]", "IC50": "< 1000"}
{"smiles": "FC(F)(F)CNCc1cc2nccc(-c3cc(Cl)cc4c3O[C@@H](c3onc5c3CNCC5)C4)c2s1", "note": "[(R)-N-((7-(5-chloro-2-(4,5,6,7-tetrahydroisoxazolo[4,3-c]pyridin-3-yl)-2,3-dihydrobenzofuran-7-yl)thieno[3,2-b]pyridin-2-yl)methyl)-2,2,2-trifluoroethan-1-amine]", "IC50": "< 1000"}
{"smiles": "CC(=O)NCc1cc2nccc(-c3cc(Cl)cc4c3O[C@@H](c3onc5c3CNCC5)C4)c2s1", "note": "[(R)-N-((7-(5-chloro-2-(4,5,6,7-tetrahydroisoxazolo[4,3-c]pyridin-3-yl)-2,3-dihydrobenzofuran-7-yl)thieno[3,2-b]pyridin-2-yl)methyl)acetamide]", "IC50": "< 1000"}
{"smiles": "CC(C)C(=O)NCc1cc2nccc(-c3cc(Cl)cc4c3O[C@@H](c3onc5c3CNCC5)C4)c2s1", "note": "[(R)-N-((7-(5-chloro-2-(4,5,6,7-tetrahydroisoxazolo[4,3-c]pyridin-3-yl)-2,3-dihydrobenzofuran-7-yl)thieno[3,2-b]pyridin-2-yl)methyl)isobutyramide]", "IC50": "< 1000"}
{"smiles": "CS(=O)(=O)NCc1cc2nccc(-c3cc(Cl)cc4c3O[C@@H](c3onc5c3CNCC5)C4)c2s1", "note": "[(R)-N-((7-(5-chloro-2-(4,5,6,7-tetrahydroisoxazolo[4,3-c]pyridin-3-yl)-2,3-dihydrobenzofuran-7-yl)thieno[3,2-b]pyridin-2-yl)methyl)methanesulfonamide]", "IC50": "< 1000"}
{"smiles": "CCC(=O)NCc1cc2nccc(-c3cc(Cl)cc4c3O[C@@H](c3onc5c3CNCC5)C4)c2s1", "note": "[(R)-N-((7-(5-chloro-2-(4,5,6,7-tetrahydroisoxazolo[4,3-c]pyridin-3-yl)-2,3-dihydrobenzofuran-7-yl)thieno[3,2-b]pyridin-2-yl)methyl)propionamide]", "IC50": "< 1000"}
{"smiles": "CC(=O)N(C)Cc1cc2nccc(-c3cc(Cl)cc4c3O[C@@H](C(=O)N3CCNCC3)C4)c2s1", "note": "[(R)-N-((7-(5-chloro-2-(piperazine-1-carbonyl)-2,3-dihydrobenzofuran-7-yl)thieno[3,2-b]pyridin-2-yl)methyl)-N-methylacetamide]", "IC50": "< 1000"}
